According to the RepoRT retention time repository:

Experiment: Waters ACQUITY UPLC BEH C18, 100 × 2.1 mm, 1.7 µm, 40 °C, 0.3 to 0.4 mL/min, estimated dead time 0.63 min; A: water + 0.1% formic acid; B: methanol + 0.1% formic acid; gradient (min/%B) 0/0.5 0.1/0.5 10/80 10.1/99.5 12/99.5
Details: stereoisomer not certain

Row | LC retention time | Compound
1 | 4.49 min | O=C(O)C1OC(Oc2cc3oc(-c4ccccc4)cc(=O)c3c(O)c2O)C(O)C(O)C1O (stereo unspecified)
2 | 1.98 min | CC(O)(CC(=O)O)CC(=O)O
3 | 8.61 min | CC(C)=CCc1cc(C=CC(=O)c2ccc(O)cc2O)ccc1O
4 | 7.57 min | C=C(CCC=C(C)C)C1CCC2(C)C1C(O)CC1C3(C)CCC(O)C(C)(C)C3C(OC3OC(CO)C(O)C(O)C3OC3OC(C)C(O)C(O)C3O)CC12C (stereo unspecified)
5 | 3.78 min | CCCSSCC(NC(=O)CCC(N)C(=O)O)C(=O)NCC(=O)O (stereo unspecified)
6 | 8.02 min | COc1ccc(-c2coc3cc(O)c(CC=C(C)C)c(O)c3c2=O)cc1
7 | 2.71 min | OCC1OC(Oc2cc3c(OC4OC(CO)C(O)C(O)C4O)cc(O)cc3[o+]c2-c2ccc(O)cc2)C(O)C(O)C1O (stereo unspecified)
8 | 3.21 min | COc1cc(-c2[o+]c3cc(O)cc(O)c3cc2OC2OC(CO)C(O)C(O)C2O)cc(O)c1O (stereo unspecified)
9 | 7.11 min | CC1OC(OC2CCC3(C)C(CCC4(C)C3C=CC3=C5CC(C)(C)CCC5(CO)C(O)CC34C)C2(C)CO)C(O)C(OC2OC(CO)C(O)C(O)C2O)C1O (stereo unspecified)
10 | 6.73 min | CC1OC(OC2C(OC3C(OC4CCC5(C)C(CCC6(C)C5CC=C5C7CC(C)(C)CC(OC(=O)CC(=O)O)C7(C)CCC56C)C4(C)CO)OC(C(=O)O)C(O)C3O)OC(CO)C(O)C2O)C(O)C(O)C1O (stereo unspecified)
11 | 6.57 min | COc1ccc(C(C)=O)c(O)c1
12 | 3.07 min | C=C1CC23CC4C5C6(C)CC(O)CC57C(C2C(O)C1C(O)C37)N4C6 (stereo unspecified)
13 | 2.67 min | NCCCCNC(=O)C=Cc1ccc(O)cc1
14 | 5.19 min | COc1cc2c(cc1OC)-c1c(C)c3ccc(OC)c(OC)c3c[n+]1CC2
15 | 2.99 min | O=C(O)C(Cc1ccccc1)NC(=O)C1CCCN1 (stereo unspecified)
16 | 9.21 min | C=CCc1ccc(O)c(-c2cc(CC=C)ccc2O)c1
17 | 3.41 min | O=c1cc(-c2ccc(O)cc2)oc2c(C3OC(CO)C(O)C(O)C3O)c(O)c(C3OCC(O)C(O)C3O)c(O)c12 (stereo unspecified)
18 | 3.94 min | O=c1c2ccccc2nc2n1CCC2
19 | 4.01 min | O=C(CCc1ccc(O)cc1)c1c(O)c(C2OC(CO)C(O)C(O)C2O)c(O)c(C2OC(CO)C(O)C(O)C2O)c1O (stereo unspecified)
20 | 4.89 min | O=C(O)CC(=O)OCC1OC(Oc2cc(O)c3c(=O)c(-c4ccc(O)cc4)coc3c2)C(O)C(O)C1O (stereo unspecified)
21 | 4.85 min | C[n+]1cc2c3c(ccc2c2ccc4cc5c(cc4c21)OCO5)OCO3
22 | 5.28 min | CC1OC(Oc2cc(O)c3c(=O)c(O)c(-c4ccc(O)cc4)oc3c2)C(O)C(O)C1O (stereo unspecified)
23 | 1.79 min | CC=CS(=O)CC(NC(=O)CCC(N)C(=O)O)C(=O)O (stereo unspecified)
24 | 3.05 min | CC(C)C(O)(C(=O)OCC1CCN2CCCC12)C(C)O (stereo unspecified)

Row | LC retention time | Compound
25 | 8.94 min | CC1(C)CC2C3=CCC4C5(C)CCC(O)C(C)(CO)C5CCC4(C)C3(C)CCC2(C)C(O)C1O (stereo unspecified)
26 | 3.07 min | NC(N)=NCCCCNC(=O)C=Cc1ccc(O)cc1
27 | 2.33 min | C1CCN2CC3CC(CN4CCCCC34)C2C1 (stereo unspecified)
28 | 5.4 min | CCC(O)(C(=O)O)c1cc2n(c(=O)c1COC(C)=O)Cc1cc3ccccc3nc1-2 (stereo unspecified)
29 | 8.22 min | CC(C)=CCc1cc(-c2coc3c(C(C=C(C)C)c4cc(-c5coc6cc(O)cc(O)c6c5=O)ccc4O)c(O)cc(O)c3c2=O)ccc1O (stereo unspecified)
30 | 3.27 min | O=c1c(-c2ccc(O)cc2)coc2c(C3OC(CO)C(O)C(O)C3O)c(O)ccc12 (stereo unspecified)
31 | 4.01 min | COc1cc(C=CC(=O)OC2C(OC3C(Oc4c(-c5ccc(O)cc5)oc5cc(OC6OC(CO)C(OC7OC(CO)C(O)C(O)C7O)C(O)C6O)cc(O)c5c4=O)OC(CO)C(O)C3O)OC(CO)C(O)C2O)ccc1O (stereo unspecified)
32 | 4.21 min | COc1cc(C=CC(=O)OCC2OC(OC3C(c4c(O)cc5oc(-c6ccc(O)cc6)cc(=O)c5c4O)OC(CO)C(O)C3O)C(O)C(O)C2O)ccc1O (stereo unspecified)
33 | 8.82 min | CCOC1OC(=O)c2cc3ccc4c(c3c(-c3ccc5c(c3)OCO5)c21)OCO4 (stereo unspecified)
34 | 2.55 min | OC1CCN2Cc3ccccc3N=C12 (stereo unspecified)
35 | 2.77 min | OCC1OC(OC2C(Oc3cc4c(O)cc(O)cc4[o+]c3-c3ccc(O)c(O)c3)OC(CO)C(O)C2O)C(O)C(O)C1O (stereo unspecified)
36 | 4.12 min | O=C(O)CCC(NC(=O)Cc1c[nH]c2ccccc12)C(=O)O (stereo unspecified)
37 | 6.97 min | CC1(C)CC(O)C2(C)CCC3(C)C(=CCC4C5(C)CCC(OC6OC(C(=O)O)C(O)C(O)C6OC6OC(CO)C(O)C(O)C6OC6OC(CO)C(O)C(O)C6O)C(C)(CO)C5CCC43C)C2C1 (stereo unspecified)
38 | 3.72 min | COc1cc(-c2oc3cc(O)cc(O)c3c(=O)c2OC2OC(CO)C(O)C(O)C2OC2OC(C)C(O)C(O)C2O)ccc1O (stereo unspecified)
39 | 4.24 min | COC(=O)C1CC23CCCN4CCC5(c6ccccc6NC15C2C)C43 (stereo unspecified)
40 | 6.12 min | COc1ccccc1C=CC(=O)O
41 | 5.26 min | OCC(Cc1cccc(O)c1)C(CO)Cc1cccc(O)c1 (stereo unspecified)
42 | 4.05 min | O=C(O)C1OC(OC2C(Oc3cc(O)c4c(=O)cc(-c5ccc(O)cc5)oc4c3)OC(C(=O)O)C(O)C2O)C(O)C(O)C1O (stereo unspecified)
43 | 9.72 min | CCCCCCCCCCCCCCCC(=O)OCC(O)COP(=O)(O)OCCNC1OC(CO)C(O)C(O)C1O (stereo unspecified)
44 | 10.3 min | CCCCCCCCC1OC1CCCCCCCC(=O)O (stereo unspecified)
45 | 4.45 min | O=c1cc(-c2ccc(OC3OC(CO)C(O)C(O)C3O)c(O)c2)oc2cc(O)cc(O)c12 (stereo unspecified)
46 | 7.42 min | COc1cc(O)c2c(c1)OC(c1ccc(O)cc1)CC2=O (stereo unspecified)
47 | 4.69 min | CC(CCC1(O)OC2CC3C4CCC5(O)CC(OC6OC(CO)C(O)C(O)C6O)C(O)CC5(C)C4CCC3(C)C2C1C)COC1OC(CO)C(O)C(O)C1O (stereo unspecified)
48 | 2.95 min | CC1OC(Oc2cc(O)c3c(=O)c(OC4OC(CO)C(O)C(O)C4OC4OC(CO)C(O)C(O)C4O)c(-c4ccc(O)c(O)c4)oc3c2)C(O)C(O)C1O (stereo unspecified)

Row | LC retention time | Compound
49 | 2.94 min | CC1OC(OCC2OC(Oc3cc4c(O)cc(O)cc4[o+]c3-c3ccc(O)c(O)c3)C(O)C(O)C2O)C(O)C(O)C1O (stereo unspecified)
50 | 6.63 min | COc1cc(CC2C(=O)OCC2Cc2ccc(OC)c(OC)c2)ccc1O (stereo unspecified)
51 | 3.3 min | Cc1cc2[nH]c(=O)c(=O)n(CC(O)C(O)C(O)CO)c2cc1C (stereo unspecified)
52 | 6.39 min | CC1(C)CCC2(C(=O)OC3OC(CO)C(O)C(O)C3O)CCC3(C)C(=CCC4C5(C)CCC(OC6OC(C(=O)O)C(OC7OC(CO)C(O)C7O)C(O)C6O)C(C)(C)C5CCC43C)C2C1 (stereo unspecified)
53 | 3.11 min | O=C(O)c1cc(=O)c2ccccc2[nH]1
54 | 4.15 min | CC1OC(Oc2c(-c3ccc(O)c(O)c3)oc3cc(O)cc(O)c3c2=O)C(OC2OC(CO)C(O)C(O)C2O)C(O)C1O (stereo unspecified)
55 | 5.4 min | COc1cc(C2c3cc4c(cc3C(OC3OC5COC(C)OC5C(O)C3O)C3COC(=O)C23)OCO4)cc(OC)c1O (stereo unspecified)
56 | 4.6 min | O=C(C=Cc1ccc(O)c(O)c1)OC(Cc1ccc(O)c(O)c1)C(=O)O (stereo unspecified)
57 | 2.12 min | CSCC(NC(=O)CCC(NCC1(O)OCC(O)C(O)C1O)C(=O)O)C(=O)O (stereo unspecified)
58 | 4.08 min | O=C1CC(c2ccc(OC3OC(CO)C(O)C(O)C3O)cc2)Oc2cc(O)ccc21 (stereo unspecified)
59 | 8.11 min | CC(C)=CCc1cc(C2CC(=O)c3c(O)cc(O)cc3O2)ccc1O (stereo unspecified)
60 | 4.8 min | CC(C)=CCCC(C)(OC1OC(CO)C(O)C(O)C1O)C1CCC2(C)C1C(O)CC1C3(C)CCC(O)C(C)(C)C3C(OC3OC(CO)C(O)C(O)C3O)CC12C (stereo unspecified)
61 | 6.2 min | CC(C)CC(NC(=O)Cc1c[nH]c2ccccc12)C(=O)O (stereo unspecified)
62 | 3.36 min | O=C(O)CC(=O)OCC1OC(Oc2c(-c3ccc(O)cc3)oc3cc(OC4OC(CO)C(O)C(O)C4O)cc(O)c3c2=O)C(O)C(O)C1O (stereo unspecified)
63 | 7.57 min | CC(C)=CCc1c(O)ccc(-c2coc3cc(O)cc(O)c3c2=O)c1O
64 | 2.69 min | CN1c2cc(O)c(N=NC(N)=O)cc2CC1S(=O)(=O)O (stereo unspecified)
65 | 2.49 min | Oc1cc(O)c2c(c1)OC(c1cc(O)c(O)c(O)c1)C(O)C2 (stereo unspecified)
66 | 3.64 min | CC(C)CC(N)C(=O)NC(Cc1ccccc1)C(=O)O (stereo unspecified)
67 | 4.91 min | CC(CCC1(O)OC2CC3C4CCC5CC(OC6OC(CO)C(OC7OC(CO)C(O)C(O)C7OC7OC(CO)C(O)C(O)C7O)C(O)C6O)CCC5(C)C4CCC3(C)C2C1C)COC1OC(CO)C(O)C(O)C1O (stereo unspecified)
68 | 5.56 min | C=CC1C(OC2OC(CO)C(O)C(O)C2O)OC=C2C(=O)N3CCc4c([nH]c5ccccc45)C3CC21 (stereo unspecified)
69 | 1.87 min | CCC(C)C(N)C(=O)NC(CC(=O)O)C(=O)O (stereo unspecified)
70 | 3.46 min | O=C(OC1Cc2c(O)cc(O)cc2OC1c1cc(O)c(O)c(O)c1)c1cc(O)c(O)c(O)c1 (stereo unspecified)

Row | Compound | LC retention time
71 | CCCC1CCCCN1 (stereo unspecified) | 2.78 min
72 | CCC1CN2CCc3cc(OC)c(OC)cc3C2CC1CC1NCCc2cc(OC)c(OC)cc21 (stereo unspecified) | 3.41 min
73 | CCN1CC2(C)CCC(O)C34C5CC6C(OC)CC(O)(C(CC23)C14)C5C6O (stereo unspecified) | 2.89 min
74 | Oc1ccc(CCc2cc(O)cc(O)c2)cc1 | 5.15 min
75 | CC=C1CC(C)C(O)(CO)C(=O)OCC2=CCN3CCC(OC1=O)C23 (stereo unspecified) | 3.23 min
76 | CC=C1CN2C3CC1C(CO)C2Cc1c3[nH]c2cc(OC)ccc12 (stereo unspecified) | 3.68 min
77 | C=CC1C(OC2OC(CO)C(O)C(O)C2O)OC=C(C(=O)OC)C1CC1NCCc2c1[nH]c1ccccc21 (stereo unspecified) | 4.36 min
78 | CC=C1CN(C)C2CC3(C(=O)N(OC)c4ccccc43)C3CC1C2CO3 (stereo unspecified) | 4.63 min
79 | CCCCc1ccc(C(=O)O)nc1 | 2.79 min
80 | CC1CCC2(OC1)OC1C(O)C3C4CCC5CC(OC6OC(CO)C(OC7OC(CO)C(O)C(OC8OCC(O)C(O)C8O)C7OC7OC(CO)C(O)C(OC8OC(CO)C(O)C(O)C8O)C7O)C(O)C6O)C(O)CC5(C)C4CCC3(C)C1C2C (stereo unspecified) | 6.99 min
81 | COc1cc(CCN)ccc1O | 2.06 min
